Consider seven compounds from US9901095B2, “Processes for the preparation of pesticidal compounds” (Dow AgroSciences LLC, priority 2013, dated 2018).

Each structure is given as a SMILES string.

For data set [1], the system named is Green Peach Aphid (Myzus persicae) (MYZUPE). Briefly: Bioassay on Green Peach Aphid (GPA), foliar spray on cabbage seedlings. It is filed as in vivo. Particulars: 200 ppm spray on cabbage seedlings; live aphids counted after three days; Abbott's correction. The method, then: Several molecules disclosed herein were tested against GPA using procedures described below.
Cabbage seedling grown in 3-in pots, with 2-3 small (3-5 cm) true leaves, were used as test substrate. The seedlings were infested with […] (wingless adult and nymph stages) one day prior to chemical application. Four pots with individual seedlings were used for each treatment. Test compounds (2 mg) were dissolved in 2 mL of acetone/methanol (1:1) solvent, forming stock solutions of 1000 ppm test compound. The stock solutions were diluted 5× with 0.025% Tween 20 in water to obtain the solution at 200 ppm test compound. A hand-held aspirator-type sprayer was used for spraying a solution to both sides of the cabbage leaves until runoff. Reference plants (solvent check) were sprayed with the diluent only containing 20% by volume acetone/methanol (1:1) solvent. Treated plants were held in a holding room for three days at approximately 25° C. and ambient relative humidity (RH) prior to grading. Evaluation was conducted by counting the number of live aphids per plant under a microscope. Percent Control was measured by using Abbott's correction formula (W. S. Abbott, “A Method of Computing the Effectiveness of an Insecticide” J. Econ. Entomol 18 (1925), pp. 265-267) as follows. Corrected % Control=100*(X−Y)/X
X=No. of live aphids on solvent check plants and
Y=No. of live aphids on treated plants
The results are indicated in the table entitled “Table 1: GPA (MYZUPE) and sweetpotato whitefly-crawler (BEMITA) Rating Table”.

Data set [2] concerns Sweetpotato Whitefly Crawler (Bemisia tabaci) (BEMITA). The experiment in a line: Bioassay on Sweetpotato Whitefly Crawler, foliar spray on cotton plants. The data set is classed as in vivo. As to conditions: 200 ppm spray on cotton plants; live nymphs counted after 8-9 days; Abbott's correction. On the procedure:
Cotton plants grown in 3-inch pots, with 1 small (3-5 cm) true leaf, were used at test substrate. The plants were placed in a room with whitely adults. Adults were allowed to deposit eggs for 2-3 days. After a 2-3 day egg-laying period, plants were taken from the adult whitefly room. Adults were blown off leaves using a hand-held Devilbliss sprayer (23 psi). Plants with egg infestation (100-300 eggs per plant) were placed in a holding room for 5-6 days at 82° F. and 50% RH for egg hatch and crawler stage to develop. Four cotton plants were used for each treatment. Compounds (2 mg) were dissolved in 1 mL of acetone solvent, forming stock solutions of 2000 ppm. The stock solutions were diluted 10× with 0.025% Tween 20 in water to obtain a test solution at 200 ppm. A hand-held Devilbliss sprayer was used for spraying a solution to both sides of cotton leaf until runoff. Reference plants (solvent check) were sprayed with the diluent only. Treated plants were held in a holding room for 8-9 days at approximately 82° F. and 50% RH prior to grading. Evaluation was conducted by counting the number of live nymphs per plant under a microscope.

Regarding `Cl.Nc1c[nH]nc1Cl` [Compound 1a, 3-Chloro-1H-pyrazol-4-amine hydrochloride], the “MYZUPE rating (% Control of Mortality)” value in data set [1] is listed as “B (More than 0-Less than 80)”. Moreover, in data set [2], the “BEMITA rating (% Control of Mortality)” value is listed as “B (More than 0-Less than 80)”.

`CC(=O)Nc1c[nH]nc1Cl` [Compound 1b, N-(3-Chloro-1H-pyrazol-4-yl)acetamide]: the “MYZUPE rating (% Control of Mortality)” value in data set [1] was “B (More than 0-Less than 80)”. In data set [2], the “BEMITA rating (% Control of Mortality)” value was “B (More than 0-Less than 80)”.

Consider `CC(=O)Nc1cn(-c2cccnc2)nc1Cl` [Compound 1c, N-(3-Chloro-1-(pyridin-3-yl)-1H-pyrazol-4-yl)acetamide], for which, in data set [1], the “MYZUPE rating (% Control of Mortality)” value is “B (More than 0-Less than 80)”. Besides, in data set [2], the “BEMITA rating (% Control of Mortality)” value is “B (More than 0-Less than 80)”.

Turning to `CCNc1cn(-c2cccnc2)nc1Cl` [Compound 1d, 3-Chloro-N-ethyl-1-(pyridin-3-yl)-1H-pyrazol-amine], the “MYZUPE rating (% Control of Mortality)” value in data set [1] is reported as “B (More than 0-Less than 80)”. The “BEMITA rating (% Control of Mortality)” value in data set [2] is reported as “B (More than 0-Less than 80)”.

As to `CCN(C(=O)CCCl)c1cn(-c2cccnc2)nc1Cl` [Compound 2a, 3-Chloro-N-(3-chloro-1-(pyridin-3-yl)-1H-pyrazol-4-yl)-N-ethylpropanamide], the “MYZUPE rating (% Control of Mortality)” value in data set [1] is “A (80-100)”. The “BEMITA rating (% Control of Mortality)” value in data set [2] is listed as “A (80-100)”.

Regarding `CCN(C(=O)CCSCCC(F)(F)F)c1cn(-c2cccnc2)nc1Cl` [Compound 6.2, N-(3-Chloro-1-(pyridin-3-yl)-1H-pyrazol-4-yl)-N-ethyl-3-((3,3,3-trifluoropropyl)thio)propanamide], in data set [1], the “MYZUPE rating (% Control of Mortality)” value is on record as “A (80-100)”. In addition, the “BEMITA rating (% Control of Mortality)” value in data set [2] was “A (80-100)”.

`CCN(C(=O)CC[S+]([O-])CCC(F)(F)F)c1cn(-c2cccnc2)nc1Cl` (centres unmarked) [Compound 7.2, N-(3-Chloro-1-(pyridin-3-yl)-1H-pyrazol-4-yl)-N-ethyl-3-((3,3,3-trifluoropropyl)sulfoxo)propanamide]: the “MYZUPE rating (% Control of Mortality)” value in data set [1] is listed as “A (80-100)”. Further, the “BEMITA rating (% Control of Mortality)” value in data set [2] is listed as “A (80-100)”.
